In patent US9440938B2, “Sulfonamide derivative having PGD2 receptor antagonistic activity” (SHIONOGI & CO., LTD., priority 2005, dated 2016):
Like-named read-outs stand apart in the source and are kept apart here.

Key:
DP receptor [1] = biological target: T1, DP receptor (Homo sapiens, UniProt Q13258); test: cAMP assay with washed platelet (DP inhibitory activity in vitro); format: cell-based; conditions: washed human platelets, 100 nM PGD2, cAMP by HTRF
T1 construct: endogenous in cells; host or cells: washed platelets from peripheral blood of a healthy volunteer
T1 sequence (Q13258 1-359): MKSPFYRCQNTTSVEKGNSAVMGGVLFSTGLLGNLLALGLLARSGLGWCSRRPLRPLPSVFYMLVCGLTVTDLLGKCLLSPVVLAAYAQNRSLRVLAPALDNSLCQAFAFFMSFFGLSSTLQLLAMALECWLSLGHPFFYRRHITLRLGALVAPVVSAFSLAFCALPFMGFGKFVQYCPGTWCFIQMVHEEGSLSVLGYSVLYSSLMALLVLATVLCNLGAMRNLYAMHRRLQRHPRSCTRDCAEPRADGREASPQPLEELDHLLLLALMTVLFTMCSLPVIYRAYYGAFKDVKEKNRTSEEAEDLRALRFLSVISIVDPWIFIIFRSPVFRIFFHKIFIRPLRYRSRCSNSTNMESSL
Experimental: 1) Preparation of Platelet and a Method of cAMP Assay
30 mL of peripheral blood was collected from a healthy volunteer using a syringe containing one ninth amount of 3.8% sodium citrate. After being centrifuged at 180 g for 10 minutes at room temperature, a supernatant was collected and used as Platelet Rich Plasma (PRP). The resulting PRP was washed with wash buffer and centrifuged three times (Washed Platelet: WP) and platelets were counted by a microcell counter. WP was added to a plate in amount of 1.5×10^8/assay and the plate was treated with 3-isobutyl-1-methylxanthin (IBMX; 0.5 mM) for 5 minutes. A reaction was initiated by adding 100 nM of PGD2 5 min after an addition of a test compound. The reaction was terminated with an addition of 1N hydrochloric acid after 2 minutes and the cells were destructed using 12% triton X-100. An amount of cAMP in the supernatant was assayed by Homogeneous Trangient Fluorescence (HTRF)

DP receptor [2] = biological target: T1, DP receptor; test: Receptor binding assay, [3H]-PGD2, platelet membrane; conditions: [3H]-PGD2, human platelet membrane
Experimental: 2) Receptor Binding Assay
A prepared WP was homogenated and a membrane fraction was collected with high-speed centrifugation. A compound of the present invention or a reference compound A (No. IC-73 in WO 2003/097598) was added to the plate and [^3H]-PGD2 was also added. A platelet membrane, a protein concentration is 2 mg/mL, was added and mixed in the plate, and placed on ice for 2 hours. The reaction solution was transferred to a low protein-adsorptive filter and washed with a wash solution eight times using a cell harvester. After the final washing, water was removed sufficiently, and scintillator was added. DP inhibitory activity was investigated by measuring [^3H] by using Micro Beta.

OVA asthma model of rat = test: Test using OVA asthma model of rat (airway hyperresponsiveness, infiltration of inflammatory cells, mucus-secretion); format: in vivo, Brown Norway (BN) Rats; conditions: po, 72 h
Experimental: Test Using OVA Asthma Model of Rat
Brown Norway (BN) Rats were sensitized by i.p. administration of 0.1 mg/mL of ovalbumin (OVA) and 1 mg of aluminum hydroxide gel. A solution of 1% OVA was aerosolized by ultrasonic nebulizer (NE-U17) and the rats were subjected to inhalation exposure of the aerosol for 30 minutes in an exposing chamber 12, 19, 26 and 33 days after the sensitization. One hour before the 4th exposure of the antigen, compounds of the present invention were administered in a dose of 10 mg/kg p.o. once a day for three days consecutively. In a control group, 0.5% of methyl cellulose was administered in place of the compound of the present invention.
Under pentobarbital anesthesia (80 mg/kg, i.p.), acetylcholine (3.9, 7.8, 15.6, 31.3, 62.5, 125, 250 and 500 μg/kg) was injected to jugular vein of the rats successively from a lower dose at intervals of 5 minutes three days after the fourth exposure to the antigen, and immediate contractile reaction of airways (an increase of insufflation pressure) was measured by a modified method of Konnzett & Ririssler. Inhibition rate of airway hyperresponsiveness against the control group was calculated based on area under the curve (AUC) obtained from concentration-response curve of acetylcholine.
After the measurement of increased hyperresponsive airway was completed, bronchoalveoli of the rats were washed with 5 mL of saline three times. Total cell number in the washings was counted by a hemacytometer under light microscope, and inhibition rates of infiltration of inflammatory cells against the control group were calculated. Further, mucin in the airway lavage fluid was measured by ELISA method using jacalin, a mucin-binding lectin, and the inhibition rates of mucus-secretion against the control group were calculated.

[3] = read-out: IC50 (50% DP-inhibitory concentration in the cAMP assay)
[4] = BN rats, 10 mg/kg p.o. once a day for three days, mucin in airway lavage fluid by ELISA against control group, read-out: inhibition rate (%) mucus-secretion
[5] = BN rats, 10 mg/kg p.o. once a day for three days, total cell number in bronchoalveolar washings against control group, read-out: inhibition rate (%) infiltration of inflammatory cells
[6] = read-out: inhibition rate (%) airway hyperresponsiveness

Row | Structure (SMILES) | IC50 (DP receptor [1]; [3]) [nM] | Ki (DP receptor [2]) [nM] | inhibition in vivo at 10 mg/kg (OVA asthma model of rat; [4]) [%] | inhibition in vivo at 10 mg/kg (OVA asthma model of rat; [5]) [%] | inhibition in vivo at 10 mg/kg (OVA asthma model of rat; [6]) [%] | IC50 (DP receptor [1]) [nM]
1 | CC(C)Oc1ccc(S(=O)(=O)N2CCN(c3ccc([N+](=O)[O-])c(OCC(=O)O)c3)CC2)cc1 [II-13] | 280 | 810 | 47 | 46 | 99 | 
2 | CC(C)Oc1ccc(S(=O)(=O)N2CCN(c3cc(F)c(F)c(OCC(=O)O)c3)CC2)cc1 [II-16] | 250 | 870 | 76 | 67 | 131 | 
3 | CC(C)Oc1ccc(S(=O)(=O)N2CCN(c3cc(Br)cc(OCC(=O)O)c3)CC2)cc1 [II-17] | 230 | 570 | 49 | 53 | 89 | 
4 | CC(C)Oc1ccc(S(=O)(=O)N2CCN(c3cc(OCC(=O)O)cc(C(F)(F)F)c3)CC2)cc1 [II-19] | 1100 | 2000 | 59 | 51 | 54 | 
5 | CC(C)Oc1ccc(S(=O)(=O)N2CCN(c3ccc(NC(=O)c4ccco4)c(OCC(=O)O)c3)CC2)cc1 [II-24] | 510 | 1700 | 89 | 67 | 77 | 
6 | CC(C)Oc1ccc(S(=O)(=O)N2CCN(c3cc(Cl)cc(OCC(=O)O)c3)CC2)cc1 [II-26] | 430 | 630 | 121 | 37 | 97 | 
7 | CC(C)Oc1ccc(S(=O)(=O)N2CCN(c3ccc(Cl)c(OCC(=O)O)c3)CC2)cn1 [II-27] | 1000 | 1400 | 118 | 49 | 49 | 
8 | CC[C@@H](C)Oc1ccc(S(=O)(=O)N2CCN(c3ccc(Cl)c(OCC(=O)O)c3)CC2)cc1 [II-29] | 380 | 740 | 110 | 60 | 89 | 
9 | CC(C)Oc1ccc(S(=O)(=O)N2CCN(c3ccc(Br)c(OCC(=O)O)c3)CC2)cc1 [II-33] | 300 | 1900 | 76 | 57 | 72 | 
10 | CC(C)Sc1ccc(S(=O)(=O)N2CCN(c3ccc(Cl)c(OCC(=O)O)c3)CC2)cc1 [II-35] | 470 | 3100 | 84 | 60 | 88 | 
11 | CC(C)Oc1ccc(S(=O)(=O)N2CCN(c3cc(OCC(=O)O)cc(-c4ccoc4)c3)CC2)cc1 [II-38] | 650 | 250 | 71 | 69 | 39 | 
12 | CC(C)Oc1ccc(S(=O)(=O)N2CCN(c3ccc(Cl)c(OCC(=O)O)c3)CC2C)cc1 (centres unmarked) [II-43] | 740 | 2300 | 98 | 33 | 56 | 
13 | CC(C)Oc1ccc(S(=O)(=O)N2CCN(c3ccc(-c4ccoc4)c(OCC(=O)O)c3)CC2)cc1 [II-54] |  | 270 | 106 | 39 | 119 | 420
14 | CC(C)Oc1ccc(S(=O)(=O)N2CCN(c3ccc(C#N)c(OCC(=O)O)c3)CC2)cc1 [II-80] | 200 | 230 | 82 | 57 | 39 | 
15 | CC(C)Oc1ccc(S(=O)(=O)N2CCN(c3ccc(-c4cnco4)c(OCC(=O)O)c3)CC2)cc1 [II-84] |  | 330 | 56 | 54 | 82 | 180
16 | CC(C)Oc1ccc(S(=O)(=O)N2CCN(c3ccc(C(=O)NC4CC4)c(OCC(=O)O)c3)CC2)cc1 [II-89] | 2100 | 20000 |  |  |  | 

Row | Structure (SMILES) | IC50 (DP receptor [1]; [3]) [nM] | Ki (DP receptor [2]) [nM] | inhibition in vivo at 10 mg/kg (OVA asthma model of rat; [4]) [%] | inhibition in vivo at 10 mg/kg (OVA asthma model of rat; [5]) [%] | inhibition in vivo at 10 mg/kg (OVA asthma model of rat; [6]) [%] | IC50 (DP receptor [1]) [nM]
17 | CC(C)Oc1ccc(S(=O)(=O)N2CCN(c3ccc(-c4nccs4)c(OCC(=O)O)c3)CC2)cc1 [II-92] | 360 | 580 | 44 | 46 | 53 | 
18 | CC(C)Oc1ccc(S(=O)(=O)N2CCN(c3ccc(-c4ncco4)c(OCC(=O)O)c3)CC2)cn1 [II-94] | 2000 | 1700 |  |  |  | 
19 | CC(C)Oc1ccc(S(=O)(=O)N2CCN(c3ccc(-n4cccn4)c(OCC(=O)O)c3)CC2)cc1 [II-95] | 2400 | 4700 |  |  |  | 
20 | CC(C)Oc1ccc(S(=O)(=O)N2CCN(c3ccc(-c4cocn4)c(OCC(=O)O)c3)CC2)cc1 [II-96] | 290 | 330 | 52 | 46 | 105 | 
21 | CC(C)Oc1ccc(S(=O)(=O)N2CCN(c3ccc(C(=O)NCc4cccs4)c(OCC(=O)O)c3)CC2)cc1 [II-99] | 590 | 11000 |  |  |  | 
22 | CC(C)Oc1ccc(S(=O)(=O)N2CCN(c3ccc(C(=O)NCc4ccccn4)c(OCC(=O)O)c3)CC2)cc1 [II-100] | 2400 | 12800 |  |  |  | 
23 | CC(C)Oc1ccc(S(=O)(=O)N2CCN(c3ccc(C(=O)Nc4nc5ccccc5[nH]4)c(OCC(=O)O)c3)CC2)cc1 [II-101] | 210 | 22000 |  |  |  | 
24 | CC(C)Oc1ccc(S(=O)(=O)N2CCN(c3ccc(C(=O)NCC4CC4)c(OCC(=O)O)c3)CC2)cc1 [II-105] | 1500 | 16000 |  |  |  | 
25 | CC(C)Oc1ccc(S(=O)(=O)N2CCN(c3ccc(C(=O)NCc4ccco4)c(OCC(=O)O)c3)CC2)cc1 [II-106] | 1600 | 19000 |  |  |  | 
26 | CC(C)Oc1ccc(S(=O)(=O)N2CCN(c3ccc(C(=O)Nc4nccs4)c(OCC(=O)O)c3)CC2)cc1 [II-108] | 130 | 13000 |  |  |  | 
27 | CC(C)Oc1ccc(S(=O)(=O)N2CCN(c3ccc(C(=O)Nc4nncs4)c(OCC(=O)O)c3)CC2)cc1 [II-110] | 360 | 9800 |  |  |  | 
28 | CC(C)Oc1ccc(S(=O)(=O)N2CCN(c3ccc(C(=O)Nc4ccn(C)n4)c(OCC(=O)O)c3)CC2)cc1 [II-111] | 700 | 36000 |  |  |  | 
29 | CC(C)Oc1ccc(S(=O)(=O)N2CCN(c3ccc(C(=O)Nc4cc(C5CC5)n[nH]4)c(OCC(=O)O)c3)CC2)cc1 [II-112] | 120 | 9300 |  |  |  | 
30 | CC(C)Oc1ccc(S(=O)(=O)N2CCN(c3ccc4ncn(CC(=O)O)c4c3)CC2)cc1 [II-134] | 2700 | 8500 |  |  |  | 
31 | CC(C)Oc1ccc(S(=O)(=O)N2CCN(c3ccc([N+](=O)[O-])c(NCC(=O)O)c3)CC2)cc1 [II-135] | 130 | 490 |  |  |  | 
